In US11484501B2, “Mechanochemical activated dry amorphisation by milling equilibrium between ap mesoporous silica” (priority 2015, dated 2022):

Test: Amorphonisation of co-milled drug by X-ray diffraction and DSC
Type: physicochemical
Details: vibration ball mill
Procedure: Amorphonisation of co-milled IBU was confirmed by DSC and X-RD study. Drug release studies were conducted by and using USP Dissolution apparatus II and media (e.g., acetate buffer) of pH 4.5. Formation of hydrogen bond between silanol groups of SYLOID® silica and functional groups of IBU were believe to be the key to drug amorphonisation in the co-milling process. To confirm the IBU amorphonisation, X-ray diffraction study (XRD) was conducted. […] Additionally, DSC studies were conducted to understand the amorphonisation and possible interaction between silanol groups of SYLOID® silica and IBU. DSC thermograms, shown in FIGS. 5A-5B, confirmed both change in enthalpy and symmetry of peak shape.

- amorphonisation of the crystalline drug into an amorphous state by (co-)milling: does not result in an amorphous form
SMILES: CC(C)Cc1ccc(C(C)C(=O)O)cc1 (stereo not shown) [IBU, ibuprofen]
